The subject of one assay is HIV LTR. The experiment in a line: LTR-CAT assay in RD cells transfected with pBennCAT. The assay is classed as cell-based, HIV-1. The conditions noted are these: for increase in CAT activity over the controls: agent added to medium of LTR-CAT transfected RD cells, harvested 48 hours later. As to the method:
Induction of the HIV-LTR was measured as a function of a reporter gene (CAT) function. pBennCAT, an LTR-CAT encoding construct, obtained from M. Martin, through the NIH ARRRP was used. The levels of CAT protein were measured using a CAT ELISA capture assay (Boehringer Mannheim), following manufacturer's specifications. The levels of CAT activity were measured by a chloramphenicol acetyltransferase assay, according to published procedures (Gorman, et al., 1982, The Rous sarcoma virus long terminal repeat is a strong promoter when introduced into a variety of eukaryotic cells by DNA mediated transfection. Proc. Natl. Acad. Sci. USA. 79, 6777-6781). Briefly, RD cells were transfected with pBennCAT (Gendelman, 1986, Trans-activation of the Human immunodeficiency virus long terminal repeat sequence by DNA viruses. Proc. Natl. Acad. Sci. USA. 83, 9759-9763), using DOTAP. Cells were washed 12 hours later and new medium, containing the test reagents was added to the cell monolayers. 48 hours later, cells were washed three times with Ca+2/Mg+2 free PBS. Cells were then scraped off the plate, and collected with 1 ml PBS. Cell pellets were lysed by resuspending them in 100 μl 0.25M Tris, pH 7.8, and undergoing three freeze-thaw cycles using an ethanol-dry ice bath, and a 37° C. water bath. Lysates were spun at 12,000 G for 5 minutes and samples were stored at −20° C. until they were used. The CAT reaction was set up using 5 μl C^14 chloramphenicol (40-50 mCi/mmole), 70 μl ddH2O, 35 μl 1M Tris, pH 7.8, 20 μl 4 mM acetyl Coa (Pharmacia), 20 μl cell lysate. The reactions were incubated at 37° C. for an hour, and subsequently extracted with 1 ml ethyl acetate. After resuspension in 20 μl ethyl acetate, samples were spotted on the silica gel TLC plates (Whatman), and developed in chloroform:methanol (95:5); ascending. Gels were dried and exposed to film (Kodak XAR) overnight at room temperature. The panel of HIV-1 LTR/CAT mutants were obtained from Dr. Joseph Stevens, through the NIH ARRRP. pGRE5/CAT was obtained from United States Biochemicals.
The possibility that activation of the GR pathway could play a central role in the viral transcription process was considered. To test this, RD cells were transfected with an LTR-CAT encoding plasmid (pBennCAT) (Gendelman, 1986, supra), without selection. 12 hours later, the cell monolayers were washed and fresh medium containing the test reagents was added to the cultures, and 48 hours later the cells were harvested. In these studies, the co-transfection of a vpr encoding plasmid with the LTR-CAT encoding plasmid produced an increase in CAT activity of 5-10 fold over the controls, as has been previously reported. […] Vpr protein was detected in the tissue culture media of these cells, as assessed by capture ELISA.

A further assay concerns HIV-1 NL43 Δvpr. The assay is described as follows: Complementation in trans of HIV-1 NL43 Δvpr in nonproductively infected U937 cells (virus production). In kind it is cell-based. The conditions noted are these: for complementation in trans of HIV-1 NL43 Δvpr virus: agent added to tissue culture medium of nonproductively infected U937 cells. As for the experimental part:
(§1) The following cell lines were obtained from the American Type Culture Collection; TE671 human embryonal rhabdomyosarcoma (ATCC HTB139), A673 embryonal rhabdomyosarcoma (ATCC CRL 1598), D17 canine osteosarcoma (ATCC CCL183), HOS human osteosarcoma (ATCC CRL 1543), U373 human glioblastoma (ATCC HTB17), SK-N-MC neuroblastoma (ATCC HTB10). Two additional glioblastoma lines were kindly provided by the Medical Research Council (MRC), England, (HT17 and HT16). U87MG (HTB14) is a glial cell line obtained from the University of Pennsylvania Cell Center. RD rhabdomyosarcoma cells were provided by Dr. A. Srinivasan. The T lymphocytic cells H9 and SupT-I were obtained from the University of Pennsylvania Cell Center, and KG-1 was obtained from Dr. G. Trinchieri. The murine NIH 3T3 line was obtained from ATCC. BSC-1, CV-1 and COS cell lines were obtained Dr. B. Moss. Primary PBL as well as primary monocytes/macrophages were isolated as in Levy, et al. 1994b, supra. All non-hematopoietic cells were cultured in DMEM with 10% heat inactivated fetal calf serum, penicillin/streptomycin, I-glutamine, Hepes (25 mM) and sodium pyruvate. Hematopoietic cells were cultured in RPMl 1640 as above except using 10% autologous human serum. Virus were prepared as described in Levy, et al., 1994b, supra; Levy, et al., 1994a, supra, which are incorporated herein by reference.
The rabbit anti-vpr peptide serum (aa 2-21, “808”) was obtained from Bryan Cullen through the NIH ARRRP. The human anti-gag p24 (V7.8) was obtained from Ronald Kennedy through the NIH ARRRP. The sheep anti-p24 was obtained from the FDA through the NIH ARRRP. […]
Such nonproductively infected cells can be rescued for p24 production by addition of exogenous vpr protein (Levy, et al., 1994a, supra; Levy, et al., 1994b, supra). […] When the nonproductively infected U937 cells described above were exposed to vpr protein, rip-1 translocated 12 hours later, and virus was first detected in the media 36 hours after the initial exposure to vpr. […]

A further assay concerns rip-1. The experiment in a line: rip-1 cytoplasmic to nuclear translocation (cellular fractionation, vpr-ligand blot). In kind it is cell-based. The conditions noted are these: for nuclear translocation of rip-1: exposure of cells to agent, steroids at 10^−6M. As for the experimental part: 3×10^6 cells were washed twice in PBS, and lysed in 200 μl of lysis buffer (150 mM NaCl, 50 mM Tris, pH 8.0, 0.5% Triton X-100, plus protease inhibitors: aprotinin, leupeptin, pepstatin A, each at 2 μg/ml; PMSF, 1 mM, and EDTA, 1 mM). Cell suspension was incubated on ice for 10 minutes with frequent vortexing, and centrifuged at 12000 g for 6 minutes. The soluble, as well as the insoluble fractions were run on 12% SDS-PAGE, and transferred to PVDF membranes (Millipore), as described. Membranes were blocked with 5% non fat dry milk, in TBS supplemented with 0.05% Tween-20. Blocked membranes were incubated with either purified vpr protein (approximately 50 ng/ml) or an irrelevant protein. These membranes were then incubated with 808 rabbit anti vpr antiserum Levy, et al. 1994b, supra, followed by I^125 protein G (NEN), and exposed to film for at least 12 hours at −80° C.

The test system of the next assay is HIV-1 NL43. The assay is described as follows: Virus production by HIV-1 NL43 infected U937 cells. The assay is classed as cell-based. As to the method:
as §1, with “reference. […]” for “reference.”

As for `C[C@@H]1C[C@H]2[C@@H]3CCC4=CC(=O)C=C[C@]4(C)[C@@]3(F)[C@@H](O)C[C@]2(C)[C@@]1(O)C(=O)CO` [Dexamethasone], the “increase in CAT activity over the controls” value with HIV LTR is “ca. 50 fold”.
Consider `C[C@]12CCC(=O)C=C1CC[C@@H]1[C@@H]2[C@@H](O)C[C@@]2(C)[C@H]1CC[C@]2(O)C(=O)CO` [Hydrocortisone], for which, in the assay on HIV-1 NL43 Δvpr, the “complementation in trans of HIV-1 NL43 Δvpr virus” value is given as “complemented in trans”. The “increase in CAT activity over the controls” value in the assay on HIV LTR is given as “ca. 50 fold”. In the assay with rip-1, the “nuclear translocation of rip-1” value was “induced the nuclear translocation of rip-1”.
Regarding `CCCCCCCCCCCCCC(=O)O[C@@H]1[C@@H](C)[C@@]2(O)[C@@H](C=C(CO)C[C@]3(O)C(=O)C(C)=C[C@@H]23)[C@@H]2C(C)(C)[C@]12OC(C)=O` [PMA], in the assay on rip-1, the “nuclear translocation of rip-1” value is “not”.
Turning to `CC#C[C@]1(O)CC[C@H]2[C@@H]3CCC4=CC(=O)CCC4=C3[C@@H](c3ccc(N(C)C)cc3)C[C@@]21C` [mifepristone], the “effect on transcomplementation of HIV-1 NL43 Δvpr infected U937 cells by vpr protein” value in the assay with HIV-1 NL43 Δvpr (mifepristone treatment) is reported as “abolished”. Moreover, the “effect on increase in CAT activity stimulated by vpr protein or steroids” value with HIV LTR (cultures supplemented with mifepristone) is given as “inhibited”. The “effect on increase in CAT activity in cells cotransfected with vpr encoding plasmid and LTR-CAT plasmid” value in the assay with HIV LTR (mifepristone) is listed as “blocked”. The “effect on vpr induced translocation of rip-1” value in the assay on rip-1 (mifepristone 10^−6M) is given as “inhibited”. Further, the “effect on rip-1 nuclear translocation induced by Dexamethasone and Hydrocortisone” value with rip-1 (mifepristone added to culture medium, 10^−6M) is listed as “blocked”. Also, in the assay on HIV-1 NL43 (HIV-1 infected cells exposed to mifepristone, 10^−6M), the “levels of virus produced, lower than the untreated cultures” value is reported as “about 70%”. Further, in the assay on HIV-1 NL43 (infected cells plus vpr protein, mifepristone 10^−6M), the “inhibition of the enhancement in virus production by addition of vpr protein” value is listed as 80-90 % inhibition.
For the compound cyclodextrin, the “complementation in trans of HIV-1 NL43 Δvpr virus” value in the assay on HIV-1 NL43 Δvpr was “not affected”. In addition, in the assay with rip-1, the “nuclear translocation of rip-1” value is on record as “failed to induce the nuclear translocation of rip-1”.

Source of the values: patent publication US6667157B1, “Compositions and methods for the abrogation of cellular proliferation utilizing the human immunodeficiency virus VPR protein” (priority 1994, dated 2003).
